Results published in US12528814B2, “Bifunctional degraders of interleukin-1 receptor-associated kinases and therapeutic use thereof” (NURIX THERAPEUTICS, INC., priority 2020, dated 2026).
Where two headings read alike, the source gives them in different places.

Assays:
IRAK4 [1] = molecular target: T1, IRAK4 (Homo sapiens (Human), UniProt Q9NWZ3); assay: IRAK4 Biochemical HTRF Kinase Assay; settings: read-out: IRAK4 HTRF biochemical: IC50
Method in brief: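 IC50 values derive from non-linear regression of sixteen concentrations in duplicate. Kinase reaction ran 90 min at ambient temperature after adding 5 μM STK-S1 substrate, 10 mM ATP and 10 mM MgCl2 (reaction-solution levels, pre-dilution to 10 μl); phospho-peptide detected by HTRF after 60 min.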
Target sequence in this assay (Q9NWZ3 whole entry, species assumed): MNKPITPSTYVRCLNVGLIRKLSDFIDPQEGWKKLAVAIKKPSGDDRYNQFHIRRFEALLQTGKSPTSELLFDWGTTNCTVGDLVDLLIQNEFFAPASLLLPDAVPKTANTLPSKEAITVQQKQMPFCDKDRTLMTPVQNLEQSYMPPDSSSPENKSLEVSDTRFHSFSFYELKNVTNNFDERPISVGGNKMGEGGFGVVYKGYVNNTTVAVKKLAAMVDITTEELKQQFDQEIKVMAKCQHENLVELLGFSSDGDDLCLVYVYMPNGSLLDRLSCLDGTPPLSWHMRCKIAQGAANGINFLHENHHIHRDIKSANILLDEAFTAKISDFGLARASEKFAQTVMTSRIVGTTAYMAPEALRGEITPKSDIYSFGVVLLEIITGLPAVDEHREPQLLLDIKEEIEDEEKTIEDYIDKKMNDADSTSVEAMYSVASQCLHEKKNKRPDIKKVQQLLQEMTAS

IRAK4 [2] = molecular target: T1, IRAK4; assay: IRAK4 Degradation HiBiT Assay; settings: HiBiT-tagged Jurkat cells, 4 hrs; for Dmax: Jurkat; for DC50: read-out: Cellular IRAK4 HiBiT: DC50
Target sequence in this assay (Q9NWZ3 whole entry): as the sequence (Q9NWZ3 whole entry, species assumed) above

[3] = read-out: Cellular IRAK4 HiBiT: Dmax, Table 5, multiple runs
[4] = read-out: Cellular IRAK4 HiBiT: Dmax, Table 4

SMILES | IC50 (IRAK4 [1]; Table 5, multiple runs) [nM] | Dmax (IRAK4 [2]; [3]) [%] | DC50 (IRAK4 [2]; Table 5, multiple runs) [nM] | IC50 (IRAK4 [1]; Table 4) [nM] | Dmax (IRAK4 [2]; [4]) [%] | DC50 (IRAK4 [2]; Table 4) [nM]
CC(C)Nc1cc(-c2ccc3cc(C#N)cnn23)ncc1-c1nnc(N2CCN(C(=O)CN3CCC4(CC3)CN(c3ccc5c(c3)C(=O)N(C3CCC(=O)NC3=O)C5=O)C4)CC2)s1 (stereo not drawn) [Example 15, 7-(5-(5-(4-(2-(2-(2-(2,6-dioxopiperidin-3-yl)-1,3-dioxoisoindolin-5-yl)-2,7-diazaspiro[3.5]nonan-7-yl)acetyl)piperazin-1-yl)-1,3,4-thiadiazol-2-yl)-4-(isopropylamino)pyridin-2-yl)pyrrolo[1,2-b]pyridazine-3-carbonitrile] | 1 | 85 | 86.9 | 1 | 81 | 82.7
CC(C)Nc1cc(-c2ccc3cc(C#N)cnn23)ncc1-c1nnc(N2CCN(C(=O)CCCCCNc3cccc4c3C(=O)N(C3CCC(=O)NC3=O)C4=O)CC2)s1 (stereo not drawn) [Example 9, 7-(5-(5-(4-(6-((2-(2,6-dioxopiperidin-3-yl)-1,3-dioxoisoindolin-4-yl)amino)hexanoyl)piperazin-1-yl)-1,3,4-thiadiazol-2-yl)-4-(isopropylamino)pyridin-2-yl)pyrrolo[1,2-b]pyridazine-3-carbonitrile] | 2.9 | 125 | 217 | 2.9 | 125 | 218
CNc1cc(-c2ccc3cc(C#N)cnn23)ncc1-c1nnc(N2CC3CCC(C2)N3C2CCN(C(=O)C[C@H](NC(=O)[C@@H]3C[C@@H](O)CN3C(=O)[C@@H](NC(=O)C3(F)CC3)C(C)(C)C)c3ccc(-c4scnc4C)cc3)CC2)s1 [Example 166, (2S,4R)—N-((1S)-3-(4-(3-(5-(6-(3-cyanopyrrolo[1,2-b]pyridazin-7-yl)-4-(methylamino)pyridin-3-yl)-1,3,4-thiadiazol-2-yl)-3,8-diazabicyclo[3.2.1]octan-8-yl)piperidin-1-yl)-1-(4-(4-methylthiazol-5-yl)phenyl)-3-oxopropyl)-1-((S)-2-(1-fluorocyclopropane-1-carboxamido)-3,3-dimethylbutanoyl)-4-hydroxypyrrolidine-2-carboxamide] | 1 | 114 | 67.7 | – | – | –
Cc1ncsc1-c1ccc([C@H](C)NC(=O)[C@@H]2C[C@@H](O)CN2C(=O)[C@@H](NC(=O)CCOCCOCCOCCOCCOCCC(=O)N2CCN(c3nnc(-c4cnc(-c5ccc6cc(C#N)cnn56)cc4NC(C)C)s3)CC2)C(C)(C)C)cc1 [Example 41, (2S,4R)-1-((S)-2-(tert-butyl)-22-(4-(5-(6-(3-cyanopyrrolo[1,2-b]pyridazin-7-yl)-4-(isopropylamino)pyridin-3-yl)-1,3,4-thiadiazol-2-yl)piperazin-1-yl)-4,22-dioxo-7,10,13,16,19-pentaoxa-3-azadocosanoyl)-4-hydroxy-N—((S)-1-(4-(4-methylthiazol-5-yl)phenyl)ethyl)pyrrolidine-2-carboxamide] | 1.3 | 47 | 1330 | 1.3 | 44 | 872
CNc1cc(-c2ccc3cc(C#N)cnn23)ncc1-c1nnc([C@H]2CC[C@H](NC(=O)CCOCCOCCOCCNc3cccc4c3C(=O)N(C3CCC(=O)NC3=O)C4=O)CC2)s1 (stereo partly drawn) [Example 70, N-((1r,4r)-4-(5-(6-(3-cyanopyrrolo[1,2-b]pyridazin-7-yl)-4-(methylamino)pyridin-3-yl)-1,3,4-thiadiazol-2-yl)cyclohexyl)-3-(2-(2-(2-((2-(2,6-dioxopiperidin-3-yl)-1,3-dioxoisoindolin-4-yl)amino)ethoxy)ethoxy)ethoxy)propenamide] | 0.8 | 100 | 10.8 | 0.86 | 68 | 6.3
CNc1cc(-c2ccc3cc(C#N)cnn23)ncc1-c1nnc([C@H]2CC[C@H](NC(=O)CCCCCOc3cc(-c4scnc4C)ccc3CNC(=O)[C@@H]3C[C@@H](O)CN3C(=O)[C@@H](NC(=O)C3(F)CC3)C(C)(C)C)CC2)s1 [Example 60, (2S,4R)—N-(2-((6-(((1r,4r)-4-(5-(6-(3-cyanopyrrolo[1,2-b]pyridazin-7-yl)-4-(methylamino)pyridin-3-yl)-1,3,4-thiadiazol-2-yl)cyclohexyl)amino)-6-oxohexyl)oxy)-4-(4-methylthiazol-5-yl)benzyl)-1-((S)-2-(1-fluorocyclopropane-1-carboxamido)-3,3-dimethylbutanoyl)-4-hydroxypyrrolidine-2-carboxamide] | 3.5 | 112 | 111 | 3.55 | 105 | 159

The remaining lines, values ahead:

IC50 (IRAK4 [1]; Table 5, multiple runs) [nM] | Dmax (IRAK4 [2]; [3]) [%] | DC50 (IRAK4 [2]; Table 5, multiple runs) [nM] | IC50 (IRAK4 [1]; Table 4) [nM] | Dmax (IRAK4 [2]; [4]) [%] | DC50 (IRAK4 [2]; Table 4) [nM] | SMILES
1.5 | 89 | 126 | – | – | – | CNc1cc(-c2ccc3cc(C#N)cnn23)ncc1-c1nnc(N2CCC(C3CCN(C(=O)CN4CCN(c5ccc6c(c5)C(=O)N(C5CCC(=O)NC5=O)C6=O)CC4)CC3)CC2)s1 (stereo not drawn) [Example 185, 7-(5-(5-(1′-(2-(4-(2-(2,6-dioxopiperidin-3-yl)-1,3-dioxoisoindolin-5-yl)piperazin-1-yl)acetyl)-[4,4′-bipiperidin]-1-yl)-1,3,4-thiadiazol-2-yl)-4-(methylamino)pyridin-2-yl)pyrrolo[1,2-b]pyridazine-3-carbonitrile]
2.2 | 60 | 46.3 | – | – | – | CNc1cc(-c2ccc3cc(C#N)cnn23)ncc1-c1nnc([C@H]2CC[C@@H](NC(=O)CCOCCNc3cccc4c3C(=O)N(C3CCC(=O)NC3=O)C4=O)CC2)s1 (stereo partly drawn) [Example 116, N-((1s,4s)-4-(5-(6-(3-cyanopyrrolo[1,2-b]pyridazin-7-yl)-4-(methylamino)pyridin-3-yl)-1,3,4-thiadiazol-2-yl)cyclohexyl)-3-(2-((2-(2,6-dioxopiperidin-3-yl)-1,3-dioxoisoindolin-4-yl)amino)ethoxy)propanamide]
0.8 | 52 | 5.87 | 0.77 | 93 | 12.9 | CNc1cc(-c2ccc3cc(C#N)cnn23)ncc1-c1nnc([C@H]2CC[C@H](NC(=O)CCOCCNc3cccc4c3C(=O)N(C3CCC(=O)NC3=O)C4=O)CC2)s1 (stereo partly drawn) [Example 71, N-((1r,4r)-4-(5-(6-(3-cyanopyrrolo[1,2-b]pyridazin-7-yl)-4-(methylamino)pyridin-3-yl)-1,3,4-thiadiazol-2-yl)cyclohexyl)-3-(2-((2-(2,6-dioxopiperidin-3-yl)-1,3-dioxoisoindolin-4-yl)amino)ethoxy)propanamide]
1.4 | 64 | 21.6 | – | – | – | CNc1cc(-c2ccc3cc(C#N)cnn23)ncc1-c1nnc(C23CCC(NC(=O)[C@H]4C[C@@H](OCCNc5cccc6c5C(=O)N(C5CCC(=O)NC5=O)C6=O)C4)(CC2)CC3)s1 (stereo partly drawn) [Example 109, (1s,3s)-N-(4-(5-(6-(3-cyanopyrrolo[1,2-b]pyridazin-7-yl)-4-(methylamino)pyridin-3-yl)-1,3,4-thiadiazol-2-yl)bicyclo[2.2.2]octan-1-yl)-3-(2-((2-(2,6-dioxopiperidin-3-yl)-1,3-dioxoisoindolin-4-yl)amino)ethoxy)cyclobutane-1-carboxamide]
0.5 | 105 | 14.8 | – | – | – | CNc1cc(-c2ccc3cc(C#N)cnn23)ncc1-c1nnc(N2CC3(CCN(C(=O)CN4CCN(c5ccc6c(c5)C(=O)N(C5CCC(=O)NC5=O)C6=O)CC4)CC3)C2)s1 (stereo not drawn) [Example 177, 7-(5-(5-(7-(2-(4-(2-(2,6-dioxopiperidin-3-yl)-1,3-dioxoisoindolin-5-yl)piperazin-1-yl)acetyl)-2,7-diazaspiro[3.5]nonan-2-yl)-1,3,4-thiadiazol-2-yl)-4-(methylamino)pyridin-2-yl)pyrrolo[1,2-b]pyridazine-3-carbonitrile]
1.1 | 97 | 85.8 | – | – | – | CNc1cc(-c2ccc3cc(C#N)cnn23)ncc1-c1nnc(N2CCN(C(=O)C[C@H](NC(=O)[C@@H]3C[C@@H](O)CN3C(=O)[C@@H](NC(=O)C3(F)CC3)C(C)(C)C)c3ccc(-c4scnc4C)cc3)CC2)s1 [Example 160, (2S,4R)—N—((S)-3-(4-(5-(6-(3-cyanopyrrolo[1,2-b]pyridazin-7-yl)-4-(methylamino)pyridin-3-yl)-1,3,4-thiadiazol-2-yl)piperazin-1-yl)-1-(4-(4-methylthiazol-5-yl)phenyl)-3-oxopropyl)-1-((S)-2-(1-fluorocyclopropane-1-carboxamido)-3,3-dimethylbutanoyl)-4-hydroxypyrrolidine-2-carboxamide]
0.6 | 34 | 1340 | – | – | – | CNc1cc(-c2ccc3cc(C#N)cnn23)ncc1-c1nnc([C@H]2CC[C@H](N(C)C(=O)CCC(=O)N[C@H](C(=O)N3C[C@H](O)C[C@H]3C(=O)N[C@@H](C)c3ccccc3)C(C)(C)C)CC2)s1 [Example 174, N1-((1r,4S)-4-(5-(6-(3-cyanopyrrolo[1,2-b]pyridazin-7-yl)-4-(methylamino)pyridin-3-yl)-1,3,4-thiadiazol-2-yl)cyclohexyl)-N4—((S)-1-((2S,4R)-4-hydroxy-2-(((S)-1-phenylethyl)carbamoyl)pyrrolidin-1-yl)-3,3-dimethyl-1-oxobutan-2-yl)-N1-methylsuccinamide]
2.9 | 82 | 72.6 | – | – | – | CNc1cc(-c2ccc3cc(C#N)cnn23)ncc1-c1nnc([C@H]2CC[C@@H](NC(=O)CCCCCNc3ccc4c(c3)C(=O)N(C3CCC(=O)NC3=O)C4=O)CC2)s1 (stereo partly drawn) [Example 114, N-((1s,4s)-4-(5-(6-(3-cyanopyrrolo[1,2-b]pyridazin-7-yl)-4-(methylamino)pyridin-3-yl)-1,3,4-thiadiazol-2-yl)cyclohexyl)-6-((2-(2,6-dioxopiperidin-3-yl)-1,3-dioxoisoindolin-5-yl)amino)hexanamide]
